For two compounds, whole-cell patch clamp results are on record in PMC6813354, “Bases of Bacterial Sodium Channel Selectivity Among Organic Cations” (Scientific Reports, 2019).

This assay deals with T1, NaChBac (Halalkalibacterium halodurans, UniProt Q9KCR8).
T1 construct: gene BH1501; NaChBac in pTracer-CMV2, transiently expressed in tsA 201 cells; homotetramer
T1 sequence (Q9KCR8 1-274): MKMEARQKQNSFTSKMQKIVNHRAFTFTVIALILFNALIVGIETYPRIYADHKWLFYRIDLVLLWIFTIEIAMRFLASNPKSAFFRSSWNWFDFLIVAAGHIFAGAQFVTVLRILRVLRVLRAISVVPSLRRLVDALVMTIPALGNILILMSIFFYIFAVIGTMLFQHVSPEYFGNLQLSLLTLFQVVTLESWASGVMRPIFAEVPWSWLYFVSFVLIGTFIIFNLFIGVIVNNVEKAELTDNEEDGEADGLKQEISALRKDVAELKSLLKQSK
Nature of the assay: whole-cell patch clamp. Type of assay: cell-based. Conditions: 142.5 mM external replacing Na+; pH 7.4; room temperature; weak pore block of Na+ current.

As to `C[N+](C)(C)C` [TMA^+, tetramethylammonium], the whole-cell patch clamp result is “different blocking effects of TMA^+ (purple) and MA^+ (orange), relative to Na^+ controls”.
Take `CN` [MA^+, methylammonium]: the whole-cell patch clamp entry was “MA^+ reduces the sodium current amplitude more effectively than TMA^+ in WT and E191D mutant”.
